The results in this text go back to ChEMBL document CHEMBL1649429, “Novel plasmid-encoded ceftazidime-hydrolyzing CTX-M-53 extended-spectrum beta-lactamase from Salmonella enterica serotypes Westhampton and Senftenberg” (Antimicrob Agents Chemother, 2009).

The structures appear in SMILES notation. Converted amounts (≈) assume the structure as drawn.

Test [1] concerns Escherichia coli. The experiment in a line: Antimicrobial activity against Escherichia coli DH5[alpha] harboring recombinant plasmid carrying CTX-M-53 gene […] in presence of clavulanic acid. Format: functional. (In general: Agar diffusion results depend on both activity and mobility in agar.)
A short description of test [2]: Antimicrobial activity against Salmonella enterica serotype Westhampton isolate 04CEB8273SAL expressing CTX-M-53 gene […] in presence of clavulanic acid. In kind it is functional, Salmonella enterica subsp. enterica serovar Westhampton.
Test [3] has as its system Escherichia coli. Put plainly: Antimicrobial activity against Escherichia coli ATCC 25922 […] in presence of clavulanic acid. Format: functional.
The test system of test [4] is Escherichia coli. Put plainly: Antimicrobial activity against Escherichia coli DH10B […] in presence of clavulanic acid. Format: functional. The note with it: K-12 DH10B.
Test [5] has as its system Escherichia coli. Put plainly: Antimicrobial activity against Escherichia coli DH10B harboring natural plasmid pWES-1 carrying CTX-M-53 gene […] in presence of clavulanic acid. Format: functional. The note with it: K-12 DH10B.
In test [6] the test system is Escherichia coli. Put plainly: Antimicrobial activity against Escherichia coli DH5[alpha] harboring phagemid pBK-CMV […] in presence of clavulanic acid. In kind it is functional.
In test [7] the test system is Escherichia coli. The experiment in a line: Antimicrobial activity against Escherichia coli ATCC 25922 by Etest. In kind it is functional.
Test [8] deals with Escherichia coli. Put plainly: Antimicrobial activity against Escherichia coli DH5[alpha] harboring phagemid pBK-CMV by Etest. Format: functional.
In test [9] the test system is Escherichia coli. Put plainly: Antimicrobial activity against Escherichia coli DH10B by Etest. In kind it is functional. The following applies: K-12 DH10B.
The nature of test [10]: Antimicrobial activity against Salmonella enterica serotype Westhampton isolate 04CEB8273SAL expressing CTX-M-53 gene by Etest. Format: functional, Salmonella enterica subsp. enterica serovar Westhampton.
Test [11] is described as follows: Antimicrobial activity against Salmonella enterica serotype Westhampton isolate 04CEB8273SAL expressing CTX-M-53 gene […]. Format: functional, Salmonella enterica subsp. enterica serovar Westhampton.
Test [12] deals with Escherichia coli. Put plainly: Antimicrobial activity against Escherichia coli DH10B by disk diffusion method. The note with it: K-12 DH10B. In kind it is functional.
In test [13] the test system is Escherichia coli. The experiment in a line: Antimicrobial activity against Escherichia coli ATCC 25922 by disk diffusion method. In kind it is functional.
For test [14], the system named is Escherichia coli. Put plainly: Antimicrobial activity against Escherichia coli DH10B harboring natural plasmid pWES-1 carrying CTX-M-53 gene […]. Format: functional. The note with it: K-12 DH10B.
Test [15] deals with Escherichia coli. The experiment in a line: Antimicrobial activity against Escherichia coli DH5[alpha] harboring recombinant plasmid carrying CTX-M-53 gene by disk diffusion method. Format: functional.
The test system of test [16] is Escherichia coli. The experiment in a line: Antimicrobial activity against Escherichia coli DH5[alpha] harboring phagemid pBK-CMV […]. Format: functional.
Test [17] concerns Escherichia coli. Put plainly: Antimicrobial activity against Escherichia coli DH5[alpha] harboring recombinant plasmid carrying CTX-M-53 gene […] in presence of Tazobactam. Format: functional.
The nature of test [18]: Antimicrobial activity against Salmonella enterica serotype Westhampton isolate 04CEB8273SAL expressing CTX-M-53 gene […] in presence of Tazobactam. Format: functional, Salmonella enterica subsp. enterica serovar Westhampton.
Test [19] has as its system Escherichia coli. Put plainly: Antimicrobial activity against Escherichia coli DH10B harboring natural plasmid pWES-1 carrying CTX-M-53 gene […] in presence of Tazobactam. In kind it is functional. The following applies: K-12 DH10B.
Test [20] concerns Escherichia coli. The experiment in a line: Antimicrobial activity against Escherichia coli DH5[alpha] harboring phagemid pBK-CMV […] in presence of Tazobactam. In kind it is functional.
Test [21] deals with Escherichia coli. The experiment in a line: Antimicrobial activity against Escherichia coli DH10B […] in presence of Tazobactam. Format: functional. The following applies: K-12 DH10B.
Test [22] concerns Escherichia coli. The experiment in a line: Antimicrobial activity against Escherichia coli ATCC 25922 […] in presence of Tazobactam. Format: functional.
The nature of test [23]: Antimicrobial activity against Salmonella enterica serotype Westhampton isolate 04CEB8273SAL CTX-M-53 gene by Etest in presence of clavulanic acid. Format: functional, Salmonella enterica subsp. enterica serovar Westhampton.
For test [24], the system named is Escherichia coli. Put plainly: Antimicrobial activity against Escherichia coli ATCC 25922 by Etest in presence of clavulanic acid. In kind it is functional.
Test [25] concerns Escherichia coli. Put plainly: Antimicrobial activity against Escherichia coli DH5[alpha] harboring phagemid pBK-CMV by Etest in presence of clavulanic acid. Format: functional.
The subject of test [26] is Escherichia coli. Put plainly: Antimicrobial activity against Escherichia coli DH5[alpha] harboring recombinant plasmid carrying CTX-M-53 gene by Etest in presence of clavulanic acid. Format: functional.
In test [27] the test system is Escherichia coli. Put plainly: Antimicrobial activity against Escherichia coli DH10B by Etest in presence of clavulanic acid. In kind it is functional. The note with it: K-12 DH10B.
In test [28] the test system is Escherichia coli. Put plainly: Antimicrobial activity against Escherichia coli DH10B harboring natural plasmid pWES-1 carrying CTX-M-53 gene by Etest in presence of clavulanic acid. In kind it is functional. The note with it: K-12 DH10B.

For the molecule `CC1(C)S[C@@H]2[C@H](NC(=O)[C@H](N)c3ccc(O)cc3)C(=O)N2[C@H]1C(=O)O` [AMOXICILLIN], the MIC turned out to be 8 µg/mL in test [1]; 8 µg/mL in test [2]; 8 µg/mL in [3]; 8 µg/mL in test [4]; 8 µg/mL in test [5]; 4 µg/mL in test [6].

Regarding `CO/N=C(\C(=O)N[C@@H]1C(=O)N2C(C(=O)O)=C(CSc3nc(=O)c(O)nn3C)CS[C@H]12)c1csc(N)n1` [CEFTRIAXONE], the MIC was 0.06 µg/mL (≈ 0.108 µM) in test [7], below 0.06 µg/mL in [8], 0.125 µg/mL (≈ 0.225 µM) in test [9] and above 256 µg/mL in [10].

`C[C@@H](O)[C@H]1C(=O)N2C(C(=O)O)=C(SCCNC=N)C[C@H]12` [IMIPENEM ANHYDROUS] had an MIC in test [11] of 0.5 µg/mL (≈ 1.67 µM).

In the case of `CC1(C)S[C@@H]2[C@H](NC(=O)[C@H](C(=O)O)c3ccsc3)C(=O)N2[C@H]1C(=O)O` [TICARCILLIN], the MIC is 32 µg/mL in test [1]; above 256 µg/mL in test [11]; 8 µg/mL (≈ 20.8 µM) in test [12]; 8 µg/mL (≈ 20.8 µM) in [13]; 128 µg/mL in test [2]; 4 µg/mL in [3]. In addition, the MIC in test [4] was 2 µg/mL; in [14] it was above 256 µg/mL; in [15], above 256 µg/mL; in test [5], 32 µg/mL; in test [16] it was 2 µg/mL (≈ 5.2 µM); in test [6], 2 µg/mL.

Consider `CO[C@@]1(NC(=O)Cc2cccs2)C(=O)N2C(C(=O)O)=C(COC(N)=O)CS[C@@H]21` [CEFOXITIN], for which the MIC stood at 8 µg/mL (≈ 18.7 µM) in test [11]; 4 µg/mL (≈ 9.36 µM) in [12]; 2 µg/mL (≈ 4.68 µM) in [13]; 4 µg/mL (≈ 9.36 µM) in [14]; 4 µg/mL in [15]; 2 µg/mL (≈ 4.68 µM) in [16].

As for `CC(C)(O/N=C(\C(=O)N[C@@H]1C(=O)N2C(C(=O)[O-])=C(C[n+]3ccccc3)CS[C@H]12)c1csc(N)n1)C(=O)O` [CEFTAZIDIME], the MIC in [1] was 0.125 µg/mL; in test [11], above 256 µg/mL; in test [12], 0.5 µg/mL (≈ 0.915 µM); in test [13], 0.25 µg/mL (≈ 0.457 µM); in test [2], 2 µg/mL; in test [3], 0.125 µg/mL. Besides, the MIC in test [4] amounted to 0.5 µg/mL; in test [14] it was 64 µg/mL (≈ 117 µM); in [15] it was 64 µg/mL; in [5] it was 0.5 µg/mL; in test [16], 0.125 µg/mL (≈ 0.229 µM); in [6] it was 0.125 µg/mL.

Regarding `CCN1CCN(C(=O)N[C@@H](C(=O)N[C@@H]2C(=O)N3[C@@H]2SC(C)(C)[C@@H]3C(=O)O)c2ccccc2)C(=O)C1=O` [PIPERACILLIN], the MIC in [11] is above 256 µg/mL; in [12], 2 µg/mL (≈ 3.86 µM); in test [13], 2 µg/mL (≈ 3.86 µM); in [17], 2 µg/mL; in test [14] it was above 256 µg/mL; in test [15] it was above 256 µg/mL. Also, the MIC was found to be 16 µg/mL in test [18]; 4 µg/mL in [19]; 1 µg/mL in [20]; 4 µg/mL in test [21]; 2 µg/mL in [22]; 1 µg/mL (≈ 1.93 µM) in test [16].

Take `CO/N=C(\C(=O)N[C@@H]1C(=O)N2C(C(=O)O)=C(COC(C)=O)CS[C@H]12)c1csc(N)n1` [CEFOTAXIME]: the MIC in test [23] is 1 µg/mL; in test [24] it was 0.06 µg/mL; in test [25], below 0.06 µg/mL; in [26] it was 0.06 µg/mL; in test [27] it was 0.125 µg/mL; in [28], 0.125 µg/mL.

On to `CO/N=C(\C(=O)N[C@@H]1C(=O)N2C(C(=O)[O-])=C(C[N+]3(C)CCCC3)CS[C@H]12)c1csc(N)n1`, for which the MIC in test [11] is above 32 µg/mL; in test [12], 0.125 µg/mL (≈ 0.26 µM); in test [14], 32 µg/mL (≈ 66.6 µM); in [15], above 32 µg/mL.

Regarding `C[C@H]1[C@H](NC(=O)/C(=N\OC(C)(C)C(=O)O)c2csc(N)n2)C(=O)N1S(=O)(=O)O` [AZTREONAM], the MIC in [11] was above 256 µg/mL; in test [12], 0.25 µg/mL (≈ 0.574 µM); in [13], 0.06 µg/mL (≈ 0.138 µM); in [14] it was 128 µg/mL (≈ 294 µM); in test [15], 128 µg/mL; in test [16] it was below 0.06 µg/mL.

Regarding `CC1(C)S[C@@H]2[C@H](NC(=O)[C@H](N)c3ccccc3)C(=O)N2[C@H]1C(=O)O` [AMPICILLIN], the MIC in test [11] is above 256 µg/mL; in test [12] it was 4 µg/mL (≈ 11.4 µM); in [13], 4 µg/mL (≈ 11.4 µM); in test [14] it was above 256 µg/mL; in [15], above 256 µg/mL.
